Patent US20250295790A1, “LECTIN-TARGETING CONJUGATES” (Helmholtz-Zentrum für Infektionsforschung GmbH, priority 2021, published 2025)
Values joined by “and” are separate entries in the source; they are usually repeats but may differ in a detail not shown here. Identical values can stand only once.

Legend:
[1] = Stability of conjugates in human blood plasma spiked with LB; format: in vitro ADME; conditions: 50% human blood plasma spiked with 10% LB, within three hours
Experimental: A 1 mM solution of the studied compound was prepared in PBS (150 mM NaCl, 2.6 mM KCl, 1.4 mM KH2PO4, 10 mM Na2HPO4, pH 7.4) with 20% DMSO. 50 μL of this solution was diluted in 950 μL matrix or human plasma (spiked with 10% LB) on ice. After brief vortex, 100 μL were immediately treated with 100 μL ice-cold MeCN (spiked with […] diphenhydramine as internal standard). The rest of the solution was incubated at 37° C. and 500 rpm in an eppendorf thermomixer. At various time points (30, 60, 120, 180 min), 100 L sample were taken and treated as described above. […] The AUC of the parent drug and its cleavage products and the internal standard was quantified using Compass QuantAnalysis quantification software. The relative AUC was calculated by AUC (compound)/AUC(ISTD). Procaine was used as a positive control as it readily degrades in human plasma.

[2] = Plasma protein binding assay (RED), murine plasma; format: in vitro ADME; conditions: mouse blood plasma
Experimental: Plasma protein binding was assessed using the rapid equilibrium device (RED) system from ThermoFisher. […] Dialysis buffer and plasma samples were added to the respective chambers according the manufacturer's protocol. The RED plate was sealed with a tape and incubated at 37° C. for 2 hours at 800 rpm on an Eppendorf MixMate® vortex-mixer. Then samples were withdrawn from the respective chambers. To 25 μl of each dialysis sample, 25 μl of plasma and to 25 μl of plasma sample, 25 l of dialysis buffer was added. […] Samples were incubated for 30 min on ice. Then samples were centrifuged at 4° C. at 2270 ref for 10 min. Supernatants were transferred to Greiner V-bottom 96-well plates and sealed with a tape. Then samples were subjected to HPLC-MS/MS analysis as described in the section ‘HPLC-MS/MS analysis’. The percentage of bound compound was calculated as follows: […]
Cell samples as well as plasma stability, plasma protein binding and metabolic stability samples were analysed using an Agilent 1290 Infinity II coupled to an AB Sciex 6500plus mass spec-trometer. LC conditions were as follows: column: Agilent Zorbax Eclipse Plus C18, 50×2.1 mm, 1.8 m; temperature: 30° C.; injection volume: 5 l per sample; flow rate: 700 l/min. Solvents: A: water+0.1% formic acid; solvent B: 95% acetonitrile/5% H2O+0.1% formic acid. […]

[3] = Microsomal stability assay, mouse S9 liver microsomes; format: in vitro ADME; conditions: for CLmic S9mouse: microsomal clearance, calculated from t1/2; for metabolic stability t1/2 MLM: mouse S9 liver fractions
Experimental: (§1) S9 liver microsomes (mouse and human, Thermo Fisher) were thawed slowly on ice. 20 mg/ml of microsomes, 2 μl of a 100 μM solution of every compound and 183 μl of 100 mM phosphate buffer were incubated 5 min at 37° C. in a water bath. Reactions were initiated using 10 μl of 20 mM NADPH (Roth). Samples were incubated in three replicates at 37° C. under gentle agitation at 150 rpm.
(§2) At 0, 5, 15, 30, and 60 min, reactions were terminated by the addition of 180 μl acetonitrile using a Mantis Formulatrix® dispenser. Samples were vortexed for 5 min using an Eppendorf MixMate® vortex mixer and centrifuged at 2270 ref for 20 min at 4° C. The supernatants were transferred to 96-well Greiner V-bottom plates, sealed and analysed according to the section HPLC-MS/MS analysis. Peak areas of the respective time point of the compounds were normalized to the peak area at time point 0 min. Then half-life was calculated using linear regression (Microsoft Excel®). Clint [μl/min/mg protein] was calculated using the following formula: […]
(§3) Cell samples as well as plasma stability, plasma protein binding and metabolic stability samples were analysed using an Agilent 1290 Infinity II coupled to an AB Sciex 6500plus mass spec-trometer. LC conditions were as follows: column: Agilent Zorbax Eclipse Plus C18, 50×2.1 mm, 1.8 m; temperature: 30° C.; injection volume: 5 l per sample; flow rate: 700 l/min. Solvents: A: water+0.1% formic acid; solvent B: 95% acetonitrile/5% H2O+0.1% formic acid. Gradient for 2, 36 and 37: 99% A from 0 min until 1 min; 99-0% A from 1.0 until 2.2 min, 0% A until 3.2 min. Gradient for naproxene: 99% A from 0 min until 1 min; 99-0% A from 1.0 until 5.5 min, 0% A until 6.0 min. Gradient for […] and […]: 99% A from 0 min until 1.0 min, 99-0% A from 1.0 until 3.5 min, 0% A until 3.7 min. Mass transitions for controls and compounds are depicted in table 5.

A549 cells = experiment: Cell accumulation assay; format: cell-based, human; conditions: for intracellular drug levels: 15 min after incubation
Experimental: A549 cells were seed into 96-well-plates as described for the cytotoxicity assay. Cells were cultivated at 37° C. and 5% CO2 until they reached 95% confluency. Cells were treated with 2, 36 or 37 at a final concentration of 10 µg/ml or left untreated. Each condition was assayed in technical dupli-cates with two biological replicates. Cells were treated for 15 min, 30 min and 60 min. After incubation for the respective time point, cells were washed twice with pre-warmed PBS and were then lysed in MeOH and scratched from the surface. Supernatants from medium, wash fluids as well as the cell extracts were subjected to mass spectrometric analysis. For wash fluid and medium samples, calibration and QC samples were prepared using PBS as matrix and spiking the respective compounds into the matrix. For cell extract samples, calibration and QC samples were prepared using MeOH as matrix. For calibration and QC samples compounds were dispensed using a Mantis(R) Formulatrix. […] Supernatants were transferred to a Greiner V-bottom plate, sealed and subjected for HPLC-MS/MS analysis.
as §3

[4] = Microsomal stability assay, human S9 liver microsomes; format: in vitro ADME; conditions: for metabolic stability t1/2 HLM: human S9 liver fractions; for CLmic S9human: microsomal clearance, calculated from t1/2
Experimental: as §1, §2, §3

Row | SMILES | release of antibiotic cargo [1] | plasma protein binding mouse [2] | CLmic S9mouse [3] [μL/min/mg protein] | metabolic stability t1/2 MLM [3] [h] | intracellular cleavage to compound 2 (A549 cells) | intracellular concentration (A549 cells; 10 μg/ml, after 30 and 60 min) [µg/mL] | intracellular drug levels (A549 cells) | metabolic stability t1/2 HLM [4] [h] | CLmic S9human [4] [μL/min/mg protein]
1 | CC(C)C[C@H](NC(=O)CNC(=O)[C@H](C)NC(=O)c1ccc(S[C@@H]2O[C@H](CO)[C@H](O)[C@H](O)[C@H]2O)cc1)C(=O)N[C@@H](C)C(=O)N[C@H]1CCN(c2cc3c(cc2F)c(=O)c(C(=O)O)cn3C2CC2)C1 [Compound 36] | no significant release of their antibiotic cargo | 74% | 14 | 1.67 | not the case | 0.013 to 0.016 | very low intracellular drug levels | 1.55 | 15
2 | CC(C)CC(NC(=O)CNC(=O)C(C)NC(=O)c1ccc(S(=O)(=O)NCC2OC(C)C(O)C(O)C2O)cc1)C(=O)NC(C)C(=O)NC1CCN(c2cc3c(cc2F)c(=O)c(C(=O)O)cn3C2CC2)C1 (centres unmarked) [Compound 37] | no significant release of their antibiotic cargo | 30% and 30.1 ± 9.2% | 6.4 | 3.6 | not the case |  | very low intracellular drug levels | 2.97 | 7.8
